For data set [1] the following is noted: human, 50 micromolar. The source says:
A portion of this flux is due to damage of the gastric tissue preparation during mounting in the Ussing chambers. To correct for flux due to edge damage, the flux rate was subtracted prior to omeprazole addition from the flux rate after omeprazole addition. However, the added issue of decline in cell viability over the course of any experiment, and its contribution to overall leak, still remains (this is generally observed in the modest decline in transepithelial electrical resistance over experimental running time).

For data set [2], the system named is rat gastric corpus mucosa. Description: Transepithelial electrical resistance and short circuit current in Ussing chambers. Particulars: 0.05 mM digoxin, 0.1 mM phenytoin. Here is the method: (§1) Water-jacketed reservoirs maintained chamber saline at 37° C.
(§2) In order to confirm stimulation of acid secretion by secretagogue addition and to verify the efficacy of the PPI, mucosal fluid compartment pH was recorded at intervals throughout the experiment with a manual electrode (Denver Instruments, Denver, Colo.). Ag/AgCl voltage and current electrodes were used to measure PD (potential difference) and ISC (short circuit current) approximately every five minutes for the duration of the experiment, as previously described (Hameed et al. (2004) Dig. Dis. Sci., 49:1381-1386), using two single-channel current/voltage clamps (McGrath Research and Technology). Ohm's Law was used to calculate transepithelial electrical resistance across the tissue.
Electrical parameters were monitored throughout the duration of the experiment. Tissues were maintained under open circuit conditions. […] Tissue voltage (potential difference), short circuit current, and transepithelial resistance were recorded approximately every five minutes for the duration of the experiment, by passing a one-second current pulse equal to biological current to bring the potential difference to zero using a current/voltage clamp (McGrath Research & Technology). Transepithelial resistance was calculated by dividing open circuit potential difference by short circuit current (Ohm's law).

Data set [3] relates to rat gastric corpus mucosa. Kind of data set: Transepithelial drug flux studies (3H-digoxin, 14C-phenytoin, mucosal to serosal) before and after omeprazole or DMSO. As to conditions: for Post-Omeprazole Flux Value: after 200 μM omeprazole; for Post-Omeprazole Flux Value / Post-DMSO Flux Value: corrected by TLC; for Pre-Omeprazole Flux Value: before 200 μM omeprazole; for % Increase in Flux After DMSO / Post-DMSO Flux Value / Pre-DMSO Flux Value: vehicle control tissue; for Pre-DMSO Flux Value: mean ± SEM. It is filed as in vitro ADME. Here is the method: Sprague Dawley male rats weighing approximately 400 grams were sacrificed by decapitation and the stomach was quickly removed, cut along the greater curvature, and flushed of luminal contents. The serosal membrane was then stripped from the corpus region and two equal sized pieces of corpus mucosa were mounted in two separate Ussing chambers with exposed tissue areas of 1.13 cm^2. Chambers were connected to 15 mL gas-lift reservoirs filled with un-buffered saline aerated with 100% O2 and bicarbonate-buffered saline aerated with 95% O2/5% CO2 on the mucosal and serosal sides, respectively. Saline temperature was held constant at 37° C. by a jacketed water bath surrounding the reservoirs. 30 minutes at 37° C. was allowed for tissue equilibration. In paired experiments, one tissue served as (vehicle) ‘control’, and the other as omeprazole-treated ‘experimental’.
After 30 minutes of tissue equilibration time in Ussing chambers, dibutyrl cyclic AMP (dBcAMP) (Sigma) was added to a final concentration of 1 mM to the serosal fluid chambers to stimulate acid secretion. […] The addition of the isotope marked the beginning of the flux period. 150 μL or 250 μL samples were taken from the serosal fluid compartment (opposite from which the isotope was added) for liquid scintillation counting (LSC). Samples were initially taken at 30 minute intervals for 90 minutes for the ^14C-phenytoin flux or at 15 minute intervals for 75 minutes for the ^3H-digoxin flux to establish the basal permeability rate (ρmoles/min/cm^2) across the tissue. 200 μM omeprazole (Sigma) (in DMSO) was then added to the mucosal and serosal sides of one chamber and an equivalent amount of DMSO (Sigma) was also added to both sides of the control chamber. Another series of serosal fluid samples were taken for LSC at 15 or 30 minute intervals for the remaining 60 minutes of ^3H-digoxin or ^14C-phenytoin flux experiments, respectfully, to determine flux rate of the radiolabeled drugs after omeprazole addition. In all cases of fluid sampling for liquid scintillation counting, an equal amount of fresh buffered saline was added back to the serosal side to prevent hydrostatic gradients from developing across the tissue. The flux of each isotope (ρmole/min/cm^2) was determined by calculating the linear regression slope of the graph of cpm versus time, and converting cpm to picomoles after determining the specific activity of the drug in the mucosal fluid.
To observe if the omeprazole-induced leak allows for permeation of certain small molecule drugs, ^3H-digoxin was added to the mucosal fluid compartment and saline samples were taken at 15 minute intervals from the serosal fluid compartments for a 135-minute flux period. Omeprazole and/or DMSO were added to their respective tissues 75 minutes after the addition of the isotope. Radioactivity present in the serosal fluid compartment was measured as a function of time before and after the addition of omeprazole or DMSO.

Data set [4] relates to rat gastric corpus mucosa. Kind of data set: Acid secretion (mucosal fluid pH) of dB-cAMP stimulated tissue in Ussing chambers. Particulars: Rattus norvegicus; 25 μM omeprazole, plateau; read-out: inhibition of acid secretion (no further decrease in mucosal fluid pH). Here is the method:
as §1, §2
Mucosal and serosal saline pH measurements were taken at approximately five minute intervals using a manual electrode (Denver Instruments) to ensure that the tissue was secreting acid. Mucosal pH readings were also taken before and after the addition of omeprazole to document the action of omeprazole on inhibiting acid secretion. Tissue viability was confirmed at the end of each experiment by tissue exposure to 10 mM amiloride in the mucosal fluid compartment in order to inhibit short circuit current.

Data set [5] deals with rat gastric corpus mucosa. Kind of data set: Transepithelial flux of 14C-labeled probes (mannitol, sucrose, polyethylene glycol) before and after PPI. Particulars: for % Increase in Flux of 14C-[D]-mannitol: 200 μM PPI. Here is the method: In each experiment, one adult male Sprague Dawley rat was sacrificed by decapitation. The stomach was removed, flushed, and stripped of its outer serosal membrane, while being frequently moistened with chilled, unbuffered saline. Two pieces of corpus mucosa were mounted in modified Ussing chambers, with exposed tissue surface area of 1.13 cm^2. Chambers were connected to gas-lift reservoirs, with a fluid volume of 17 mL per hemichamber. The mucosal hemichamber was filled with unbuffered saline (with 17 mM glucose) and kept aerated and perfused with 100% O2 at 37° C. […] Water-jacketed reservoirs maintained chamber saline at 37° C.
KRB was adjusted to a pH of 7.3-7.4.
Unbuffered saline was gassed with 100% O2 and was used to bathe the mucosal side of the gastric mucosa.
Approximately 30 minutes after tissues were mounted in Ussing chambers, dibutyrl cyclic AMP (dB-cAMP) (Sigma, St. Louis, Mo.) was added to the serosal sides of both chambers to a concentration of 1 mM in order to stimulate acid output by the tissue.
Three experiments were performed with each PPI, examining gastric permeability to ^14C-mannitol.
Three experiments were performed at each omeprazole concentration.

For data set [6] the following is noted: Kiley et al. (2007); cited from earlier work.
The test system of the next data set is healthy controls. Description: Sucrose leak test before and after five days of omeprazole or famotidine. It is filed as in vivo, human. Here is the method: An 8 hour overnight urine sample was collected in a container with 5 ml of 10% thymol in isopropanol as antimicrobial preservative. A courier service picked up urine containers at the patient's home and delivered them to the research laboratory. Total urine volume and refractive index were measured and recorded. […] This amount of sucrose equates to the amount of sucrose which leaked from the upper GI lumen.
H-2 blockers such as PEPCID® (famotidine) also cause a GI leak. The instant study was first performed with 20 subjects, all healthy controls. Randomly 10 were put on PPIs (20 mg of omeprazole), 10 on H-2 blockers (40 mg of famotidine). These amounts are standard for acid suppression therapy. […] They were given doses of these drugs in the morning for five days. A sucrose leak test was done the night of the fifth and last day.
Therefore, a second H-2 blocker study was performed looking at leak in an n=5 group but doing evening doses of famotidine and maintaining the other aspects of the above study, with the post H-2 blocker leak test performed again the night of the 5th dose, but now only with a 4-6 hours after the 5th and final dose.

In the next data set the test system is patients. Particulars: Wilde et al. (1994); cited from earlier work.
The subject of data set [7] is rat gastric corpus mucosa. The data set is classed as in vitro ADME. Here is the method:
Additional saline samples were taken from the mucosal and serosal fluid compartments one minute before the addition of omeprazole/DMSO and at the end of the entire flux period to allow for thin-layer chromatography (TLC) analysis of radioactivity that crossed the tissue. TLC was performed to account for the potential contribution of radiolabeled metabolites to total radioactivity crossing the epithelial barrier, in the event of drugs entering gastric epithelial cells and metabolites being effluxed. Saline samples were taken from both surfaces of the tissue to determine possible degradation of the molecule upon exposure to the mucosal surface of the tissue as well as to analyze the chemical nature of the radioactivity that crossed the tissue. […] TLC was performed on silica gel 60 plates (Kodak) by spotting very small amounts of the concentrated sample. Plates were then placed in a sandwich tank and a variety of mobile phases were employed, including butanol/acetic acid/water (120:30:50), isopropanol/water (120:30), and ethyl acetate/methanol/water (81:11:8).

The values that follow come from patent publication US20110046079A1, “Use of Proton Pump Inhibitors as Drug Delivery Adjuvants” (priority 2008, published 2011).

Regarding `C[C@H]1O[C@@H](O[C@H]2[C@@H](O)C[C@H](O[C@H]3[C@@H](O)C[C@H](O[C@H]4CC[C@@]5(C)[C@H](CC[C@@H]6[C@@H]5C[C@@H](O)[C@]5(C)[C@@H](C7=CC(=O)OC7)CC[C@]65O)C4)O[C@@H]3C)O[C@@H]2C)C[C@H](O)[C@@H]1O` [digoxin], the “total gastric corpus-wide flux” value in data set [1] was determined as 900 picomoles/minute. Also, the “effect of the probe drug itself on transepithelial electrical resistance or short circuit current” value in data set [2] was “not themselves exerting an effect”. In addition, the “% Increase in Flux After Omeprazole” value in [3] (0.05 mM probe, 200 μM omeprazole, P<0.03 vs DMSO) amounted to 82.2%. For the same compound, the “% Increase in Flux After Omeprazole” value in data set [3] (0.05 mM probe, 200 μM omeprazole, P<0.03 vs DMSO, listed as 3H-Digoxin) is listed as 82.2% ± 7.7%. Also, in data set [3] (0.05 mM probe), the “Post-Omeprazole Flux Value” is listed as 9.4 ± 0.6 ρmole/min/cm^2, the “% Increase in Flux After DMSO” value is listed as 50.9% and the “Post-DMSO Flux Value” was 7.2 ± 1.5 ρmole/min/cm^2. Further, in [3] (0.05 mM probe, 4 experiments), the “Pre-Omeprazole Flux Value” is given as 5.1 ± 0.2 ρmole/min/cm^2 and the “Pre-DMSO Flux Value” is recorded as 4.8 ± 1.0 ρmole/min/cm^2. For the same compound, the “% Increase in Flux After DMSO” value in [3] (0.05 mM probe, listed as 3H-Digoxin) was 50.9% ± 7.0%. Also, the “increase in flux of total radioactivity (tritium) after omeprazole addition” value in data set [3] (200 μM omeprazole, not corrected by TLC, SEM) was 84%. Moreover, the “increase in flux of total radioactivity (tritium), vehicle control” value in [3] (DMSO, not corrected by TLC) is 50%. Moreover, in data set [3] (in the presence of omeprazole, 0.05 mM digoxin), the “final flux of true 3H-digoxin” value is recorded as “approximately 9 picomoles/min/cm^2”. Besides, the “final omeprazole-dependent 3H-digoxin flux” value in [3] (omeprazole flux minus DMSO flux, 4 paired experiments, SEM) is given as 1.8±0.4 picomoles/min/cm^2.

Consider `COc1ccc2[nH]c([S+]([O-])Cc3ncc(C)c(OC)c3C)nc2c1` (stereo not drawn) [omeprazole], for which the inhibition at 25 µM in [4] is 100%. Besides, the “% Increase in Flux of 14C-[D]-mannitol” value in data set [5] came to 68.72%. Also, the “% Increase in Flux of 14C-[D]-mannitol” value in data set [5] (listed as Omeprazole) is recorded as 68.72 +/− 8.32%. The “effect on transepithelial permeability at low concentrations” value in data set [5] (1, 5, or 10 μM omeprazole, 14C-mannitol) is recorded as “no significant effect”. In addition, the “concentration at which marked transepithelial permeability increase first occurred” value in [5] (14C-mannitol, 1-200 μM tested, plateau at 100 and 200 μM) was found to be 25 µM. For the same compound, the “increase of serum levels of digoxin by omeprazole” value in [6] is “more than 350%”. This compound returned a pre-med sucrose leak in the data set on healthy controls (baseline before medication, n=10 per group, SEM) of 42 mg. The “post med sucrose leak” value in the data set on healthy controls (morning doses for five days (20 mg omeprazole or 40 mg famotidine), test night of fifth day, n=10) is 212 mg. In the data set with patients, the patients with diarrhea is 1-3%, the patients with headache is recorded as 0.5-2.4% and the patients with nausea is listed as 0.9-2%.

For the compound `O=C1NC(=O)C(c2ccccc2)(c2ccccc2)N1` [phenytoin], in [7], the “metabolic breakdown on crossing the gastric mucosa” value is “no metabolic breakdown”. Moreover, the “co-migration of serosal radioactivity with pure phenytoin standard” value in data set [7] (male, Sprague Dawley, rat, 0.1 mM) is 100%. The “effect of the probe drug itself on transepithelial electrical resistance or short circuit current” value in [2] is “not themselves exerting an effect”. For the same compound, in data set [3] (0.1 mM probe, 200 μM omeprazole, listed as 14C-Phenytoin), the “% Increase in Flux After Omeprazole” value is 54.4% ± 7.7%. The “% Increase in Flux After Omeprazole” value in data set [3] (0.1 mM probe, 200 μM omeprazole, listed as 14C-phenytoin) was 54.4%. Besides, in [3] (0.1 mM probe), the “Post-Omeprazole Flux Value” was 119.4 ± 12.9 ρmole/min/cm^2, the “% Increase in Flux After DMSO” value came out at 69.3% and the “Post-DMSO Flux Value” was 120.0 ± 14.7 ρmole/min/cm^2. For the same compound, in data set [3] (0.1 mM probe, 3 experiments), the “Pre-Omeprazole Flux Value” is on record as 78.3 ± 11.4 ρmole/min/cm^2 and the “Pre-DMSO Flux Value” is on record as 71.9 ± 9.8 ρmole/min/cm^2. The “% Increase in Flux After DMSO” value in [3] (0.1 mM probe, listed as 14C-Phenytoin) is 69.3% ± 13.9%.
